IC50 data for 11 compounds are collected here from patent US20250163054A1, “SUBSTITUTED BICYCLIC HETEROARYL COMPOUNDS USEFUL AS INHIBITORS OF TLR9” (Bristol-Myers Squibb Company, priority 2022, published 2025).

Where only a bound is given, the exact number is not on record here.

Common to all, as to assay type: cell-based
Experiment [1] deals with T1, human TLR8 (Homo sapiens, UniProt Q9NR97).
T1 construct: host or cells: HEK-Blue cells (HEK293-derived reporter line)
T1 sequence (Q9NR97 27-1041): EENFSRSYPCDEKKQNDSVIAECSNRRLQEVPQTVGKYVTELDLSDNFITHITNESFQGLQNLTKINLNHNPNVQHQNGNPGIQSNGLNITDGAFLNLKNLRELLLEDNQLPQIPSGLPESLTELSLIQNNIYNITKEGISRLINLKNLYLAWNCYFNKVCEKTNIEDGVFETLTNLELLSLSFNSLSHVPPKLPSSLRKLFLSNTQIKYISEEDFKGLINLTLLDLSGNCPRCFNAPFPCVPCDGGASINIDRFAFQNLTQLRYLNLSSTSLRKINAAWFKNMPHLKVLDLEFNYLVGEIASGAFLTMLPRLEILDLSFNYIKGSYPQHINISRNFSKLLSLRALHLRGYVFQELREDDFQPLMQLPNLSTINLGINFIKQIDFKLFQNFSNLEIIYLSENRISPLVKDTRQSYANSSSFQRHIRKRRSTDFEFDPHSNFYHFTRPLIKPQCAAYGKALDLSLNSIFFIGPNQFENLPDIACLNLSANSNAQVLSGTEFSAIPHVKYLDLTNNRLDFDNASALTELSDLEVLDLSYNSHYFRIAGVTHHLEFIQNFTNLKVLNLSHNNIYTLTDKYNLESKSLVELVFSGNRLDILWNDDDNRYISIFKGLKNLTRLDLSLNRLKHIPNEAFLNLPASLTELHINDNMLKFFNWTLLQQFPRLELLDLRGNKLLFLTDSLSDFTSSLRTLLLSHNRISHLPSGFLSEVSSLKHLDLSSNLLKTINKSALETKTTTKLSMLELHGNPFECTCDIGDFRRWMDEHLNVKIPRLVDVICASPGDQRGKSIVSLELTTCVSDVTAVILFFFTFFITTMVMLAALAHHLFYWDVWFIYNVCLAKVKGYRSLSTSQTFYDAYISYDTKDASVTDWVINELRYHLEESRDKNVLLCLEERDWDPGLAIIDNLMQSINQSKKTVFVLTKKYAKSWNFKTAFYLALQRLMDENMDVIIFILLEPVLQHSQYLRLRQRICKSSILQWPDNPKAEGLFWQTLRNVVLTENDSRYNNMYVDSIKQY
The experiment is described as follows: TLR7/8/9 Inhibition Reporter Assays (TLR8). Particulars: HEK-Blue cells overexpressing human TLR8, SEAP reporter, stimulated with TLR8 ligand R848. An outline of the steps:
(§1)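 HEK-Blue cells overexpressing human TLR7, TLR8 or TLR9 with NF-κB/AP-1-driven SEAP reporter, pre-treated 60 min with compound ([…]). Stimulated with […] (TLR7), […] (TLR8) or ODN2006 200 nM (TLR9), then 22 h at 37° C; SEAP measured, % inhibition relative to agonist-plus-DMSO and known-inhibitor wells.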

For experiment [2], the target named is T2, human TLR9 (Homo sapiens, UniProt Q9NR96).
T2 construct: host or cells: HEK-Blue cells (HEK293-derived reporter line)
T2 sequence (Q9NR96 26-1032): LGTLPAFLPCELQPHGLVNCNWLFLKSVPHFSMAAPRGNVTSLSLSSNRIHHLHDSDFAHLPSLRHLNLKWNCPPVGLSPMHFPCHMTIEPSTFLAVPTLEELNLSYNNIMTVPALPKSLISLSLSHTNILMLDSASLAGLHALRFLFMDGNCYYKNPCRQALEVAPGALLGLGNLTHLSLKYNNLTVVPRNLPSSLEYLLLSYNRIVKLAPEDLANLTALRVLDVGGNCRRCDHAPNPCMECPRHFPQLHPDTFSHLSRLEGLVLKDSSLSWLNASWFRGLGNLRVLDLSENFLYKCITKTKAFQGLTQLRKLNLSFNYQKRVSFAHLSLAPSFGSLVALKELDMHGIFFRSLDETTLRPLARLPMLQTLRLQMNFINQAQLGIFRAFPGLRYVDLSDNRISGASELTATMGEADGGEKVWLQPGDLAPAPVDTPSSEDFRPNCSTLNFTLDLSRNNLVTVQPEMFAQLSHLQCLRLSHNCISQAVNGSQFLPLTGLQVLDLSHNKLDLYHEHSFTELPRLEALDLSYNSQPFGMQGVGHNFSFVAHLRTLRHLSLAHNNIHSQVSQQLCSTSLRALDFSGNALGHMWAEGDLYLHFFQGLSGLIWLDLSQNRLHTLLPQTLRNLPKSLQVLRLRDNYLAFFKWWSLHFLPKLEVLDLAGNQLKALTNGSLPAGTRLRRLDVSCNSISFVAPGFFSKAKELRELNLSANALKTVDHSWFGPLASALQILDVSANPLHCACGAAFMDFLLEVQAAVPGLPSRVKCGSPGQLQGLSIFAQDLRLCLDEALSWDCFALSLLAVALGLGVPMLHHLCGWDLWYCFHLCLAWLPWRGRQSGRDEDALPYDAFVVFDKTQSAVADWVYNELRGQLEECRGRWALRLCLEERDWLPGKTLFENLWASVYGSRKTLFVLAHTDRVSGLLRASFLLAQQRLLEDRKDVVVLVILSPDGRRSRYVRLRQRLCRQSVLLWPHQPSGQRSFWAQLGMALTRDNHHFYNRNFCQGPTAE
In words: TLR7/8/9 Inhibition Reporter Assays (TLR9). Particulars: HEK-Blue cells overexpressing human TLR9, SEAP reporter, stimulated with TLR9 ligand ODN2006. The method, boiled down: as §1

Experiment [3] addresses T3, human TLR7 (Homo sapiens, UniProt Q9NYK1).
T3 construct: host or cells: HEK-Blue cells (HEK293-derived reporter line)
T3 sequence (Q9NYK1 27-1049): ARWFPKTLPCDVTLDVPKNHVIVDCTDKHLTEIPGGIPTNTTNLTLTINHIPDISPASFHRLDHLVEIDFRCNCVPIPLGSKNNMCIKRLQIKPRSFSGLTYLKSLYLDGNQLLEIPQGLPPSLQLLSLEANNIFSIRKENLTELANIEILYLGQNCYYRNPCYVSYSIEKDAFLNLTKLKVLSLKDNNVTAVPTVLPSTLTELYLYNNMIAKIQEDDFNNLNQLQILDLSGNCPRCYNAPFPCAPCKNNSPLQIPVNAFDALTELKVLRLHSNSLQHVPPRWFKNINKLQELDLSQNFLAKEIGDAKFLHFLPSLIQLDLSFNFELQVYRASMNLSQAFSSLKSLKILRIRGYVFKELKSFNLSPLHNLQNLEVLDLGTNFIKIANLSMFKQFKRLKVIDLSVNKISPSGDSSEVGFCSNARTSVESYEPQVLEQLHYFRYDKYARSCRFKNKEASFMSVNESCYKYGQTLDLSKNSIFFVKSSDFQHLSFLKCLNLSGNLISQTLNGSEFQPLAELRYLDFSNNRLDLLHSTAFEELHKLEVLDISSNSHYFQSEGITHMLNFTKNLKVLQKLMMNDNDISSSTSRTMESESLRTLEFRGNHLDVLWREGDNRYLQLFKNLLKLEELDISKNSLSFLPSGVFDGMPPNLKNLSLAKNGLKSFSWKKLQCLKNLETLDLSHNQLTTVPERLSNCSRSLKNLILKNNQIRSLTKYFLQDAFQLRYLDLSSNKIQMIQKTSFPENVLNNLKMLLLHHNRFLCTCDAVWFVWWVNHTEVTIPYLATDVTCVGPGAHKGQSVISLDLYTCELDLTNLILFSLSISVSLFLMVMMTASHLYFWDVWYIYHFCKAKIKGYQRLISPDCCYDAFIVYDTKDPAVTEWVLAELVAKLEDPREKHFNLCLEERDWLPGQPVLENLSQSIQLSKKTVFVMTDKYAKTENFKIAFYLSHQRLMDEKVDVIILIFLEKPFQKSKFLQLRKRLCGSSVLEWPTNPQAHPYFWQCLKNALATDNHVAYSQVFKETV
In words: TLR7/8/9 Inhibition Reporter Assays (TLR7). Particulars: HEK-Blue cells overexpressing human TLR7, SEAP reporter, stimulated with TLR7 ligand gardiquimod. An outline of the steps: as §1

Regarding `CC(C)CN1CCC(N2CC=C(c3cc4c(nc(-c5ccc(S(C)(=O)=O)cc5)n4C)c(C(F)(F)F)n3)CC2)CC1` [Example 36, 6-(1-(1-isobutylpiperidin-4-yl)-1,2,3,6-tetrahydropyridin-4-yl)-1-methyl-2-(4-(methylsulfonyl)phenyl)-4-(trifluoromethyl)-1H-imidazo[4,5-c]pyridine], the values for the IC50 in experiment [1], in experiment [2] and in experiment [3] were over 50000 nM, 330 nM and 4100 nM, respectively.
The corresponding values for `Cc1nc(-c2ccc(N3C[C@H]4CN(CC(C)(C)O)C[C@H]4C3)cc2)cc2c1nc(-c1ccc(S(C)(=O)=O)cc1)n2C` [Example 93, 1-((3aR,6aS)-5-(4-(1,4-dimethyl-2-(4-(methylsulfonyl)phenyl)-1H-imidazo[4,5-c]pyridin-6-yl)phenyl)hexahydropyrrolo[3,4-c]pyrrol-2(1H)-yl)-2-methylpropan-2-ol] are 2000 nM, 79 nM and 810 nM.
As for `COc1ccc(-c2nc3c(C)nc(-c4ccc(N5CCN(C6CCC6)CC5)cc4)cc3n2C)cc1OC` [Example 19, 6-(4-(4-cyclobutylpiperazin-1-yl)phenyl)-2-(3,4-dimethoxyphenyl)-1,4-dimethyl-1H-imidazo[4,5-c]pyridine], the IC50 in experiment [1] was over 50000 nM; in experiment [2], 820 nM; in experiment [3], 850 nM.
`Cc1nc(C2CCN(C3CCN(C(C)C)CC3)CC2)cc2c1nc(-c1ccc(S(C)(=O)=O)cc1)n2C` [Example 38, 6-(1′-isopropyl-[1,4′-bipiperidin]-4-yl)-1,4-dimethyl-2-(4-(methylsulfonyl)phenyl)-1H-imidazo[4,5-c]pyridine]: the IC50 was over 50000 nM in experiment [1], 130 nM in experiment [2] and 7700 nM in experiment [3].
On to `COc1ccc(-c2nc3c(C)nc(-c4ccc(N5CCC6(CC5)CN(C5COC5)C6)cc4)cc3n2C)cc1OC` [Example 106, 2-(3,4-dimethoxyphenyl)-1,4-dimethyl-6-(4-(2-(oxetan-3-yl)-2,7-diazaspiro[3.5]nonan-7-yl)phenyl)-1H-imidazo[4,5-c]pyridine], for which the IC50 in experiment [1] is over 50000 nM; in experiment [2], 230 nM; in experiment [3] it was 4000 nM.
The corresponding values for `COc1ccc(-c2nc3c(C)nc(-c4ccc(N5CCN(CC6CC6)CC5)cc4)cc3n2C)cc1OC` [Example 18, 6-(4-(4-(cyclopropylmethyl)piperazin-1-yl)phenyl)-2-(3,4-dimethoxyphenyl)-1,4-dimethyl-1H-imidazo[4,5-c]pyridine] are 18000 nM, 140 nM and 1500 nM.
Turning to `Cc1nc(-c2ccc(N3CCN(CC(C)(C)O)CC3)cc2)cc2c1nc(-c1ccc(S(C)(=O)=O)cc1)n2C` [Example 8, 1-(4-(4-(1,4-dimethyl-2-(4-(methylsulfonyl)phenyl)-1H-imidazo[4,5-c]pyridin-6-yl)phenyl)piperazin-1-yl)-2-methylpropan-2-ol], the results for the IC50 in experiment [1], in experiment [2] and in experiment [3] were 13000 nM, 890 nM and 6400 nM, respectively.
On to `Cc1cc(-c2nc3c(C)nc(-c4ccc(N5CCN(C6CCC6)CC5)cc4)cc3n2C)cc(C)n1` [Example 16, 6-(4-(4-cyclobutylpiperazin-1-yl)phenyl)-2-(2,6-dimethylpyridin-4-yl)-1,4-dimethyl-1H-imidazo[4,5-c]pyridine], for which the IC50 in experiment [1] is over 50000 nM; in experiment [2] it was 910 nM; in experiment [3], 2100 nM.
Consider `Cc1nc(-c2ccc(N3CCC(N(C)C)CC3)cc2)cc2c1nc(-c1ccc(S(C)(=O)=O)cc1)n2C` [Example 4, 1-(4-(1,4-dimethyl-2-(4-(methylsulfonyl)phenyl)-1H-imidazo[4,5-c]pyridin-6-yl)phenyl)-N,N-dimethylpiperidin-4-amine], for which the concentration for half-maximal inhibition (IC50) in experiment [1] came out at 9200 nM; in experiment [2], 120 nM; in experiment [3], 1300 nM.
The corresponding values for `CC(C)CN1CCC(N2CCC(c3cc4c(nc(-c5ccc(S(C)(=O)=O)cc5)n4C)c(C(F)(F)F)n3)CC2)CC1` [Example 33, 6-(1′-isobutyl-[1,4′-bipiperidin]-4-yl)-1-methyl-2-(4-(methylsulfonyl)phenyl)-4-(trifluoromethyl)-1H-imidazo[4,5-c]pyridine] are over 50000 nM, 590 nM and 1400 nM.
`Cc1nc(-c2ccc(N3CC4(C3)CN(C(C)C)C4)cc2)cc2c1nc(-c1ccc(S(C)(=O)=O)cc1)n2C` [Example 78, 6-(4-(6-isopropyl-2,6-diazaspiro[3.3]heptan-2-yl)phenyl)-1,4-dimethyl-2-(4-(methylsulfonyl)phenyl)-1H-imidazo[4,5-c]pyridine]: the figures for the 50% inhibitory concentration (IC50) in experiment [1], in experiment [2] and in experiment [3] were 6300 nM, 130 nM and 7800 nM, respectively.
